Measurements taken from patent publication US11840686B2, “Modulation of prekallikrein (PKK) expression” (Ionis Pharmaceuticals, Inc., priority 2013, dated 2023).
Strand notation (5' to 3'): a small letter for the sugar, then the base; units joined by * are phosphorothioate-linked, units joined directly phosphodiester-linked; [ ] holds rarer units or linkages, { } end groups; capitals alone tell only the bases. e = 2'-O-(2-methoxyethyl) (MOE); [5mC] = 5-methylcytosine; d = 2'-deoxy (DNA)

Test system: human PKK mRNA
Assay: Antisense inhibition of human PKK mRNA in HepaRG cells, 5,000 nM (Example 2)
Format: cell-based
Summary of the method: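 Percent inhibition of PKK mRNA is reported relative to untreated cells, after adjustment for total RNA by RIBOGREEN. Gapmers of 16–20 nucleosides with 2′-MOE wings were delivered at 5,000 nM by electroporation into HepaRG cells and left for roughly 24 hours before RNA isolation.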

[1] = Table 9 experiment, HepaRG cells, 20,000 cells per well, electroporation with 5,000 nM antisense oligonucleotide, approx. 24 hours, PKK mRNA by RT-PCR (RTS3454), relative to untreated control cells
[2] = Table 10 experiment, HepaRG cells, 20,000 cells per well, electroporation with 5,000 nM antisense oligonucleotide, approx. 24 hours, PKK mRNA by RT-PCR (RTS3454), relative to untreated control cells
[3] = human PKK mRNA, HepaRG cells, 5-10-5 motif oligonucleotides targeting SEQ ID NO: 1 and 10
[4] = Table 8, HepaRG cells, electroporation with 5,000 nM antisense oligonucleotide, approx. 24 hours, PKK mRNA by RT-PCR (RTS3454), relative to untreated control cells
[5] = HepaRG cells, 5,000 nM antisense oligonucleotide, 5-10-5 gapmers, Table 17
[6] = HepaRG cells, electroporation, 5,000 nM antisense oligonucleotide, approx. 24 hours, primer probe set RTS3454, relative to untreated control cells, Table 11
[7] = HepaRG cells, 5,000 nM antisense oligonucleotide, 5-10-5 gapmers, Table 16
[8] = HepaRG cells, electroporation, 5,000 nM antisense oligonucleotide, approx. 24 hours, primer probe set RTS3454, relative to untreated control cells, Table 12

546313 (antisense eG*eG*e[5mC]*eG*eA*dT*dA*dT*d[5mC]*dA*dT*dG*dA*dT*dT*e[5mC]*e[5mC]*e[5mC]*eT*eT) [compound 546313]
% inhibition [1]: 60%
% inhibition [2]: 75%

546307 (antisense eT*eA*eT*eA*eG*dT*dT*dT*dT*dG*dG*dT*dG*dA*dA*eT*eA*eA*eT*eA) [compound 546307]
% inhibition [1]: 12%
% inhibition [2]: 0%

547448 (antisense eT*eT*eA*eT*eT*dT*dG*dT*dG*dA*dG*dA*dA*dA*dG*eG*eT*eG*eT*eA) [compound 547448]
% inhibition [1]: 75%
% inhibition [2]: 83%

547653 (eA*eT*e[5mC]*eA*e[5mC]*dT*dG*dT*dA*d[5mC]*d[5mC]*dT*dA*dT*dA*eA*e[5mC]*eA*eG*eT; antisense) [compound 547653]
% inhibition [3]: 57%

547396 (eT*e[5mC]*eA*eG*eG*dT*dA*dA*dA*dG*dT*dT*d[5mC]*dT*dT*eT*eT*eG*e[5mC]*eA; antisense) [compound 547396]
% inhibition (Table 7, HepaRG cells, electroporation with 5,000 nM antisense oligonucleotide, approx. 24 hours, PKK mRNA by RT-PCR (RTS3454), relative to untreated control cells): 49%

546165 (e[5mC]*eA*eT*eT*eG*dA*dT*dT*dG*dA*dA*d[5mC]*dT*dT*dG*e[5mC]*eT*eG*eG*eA; antisense) [compound 546165]
% inhibition (HepaRG cells, electroporation with 5,000 nM antisense oligonucleotide, approximately 24 hours, PKK mRNA by RT-PCR (RTS3454), relative to untreated control cells, Table 5 experiment): 71%

547415 (eT*e[5mC]*eT*eG*eG*dG*dA*dG*dT*dA*dA*dA*dG*dA*dA*eT*eA*eA*eG*eT; antisense) [compound 547415]
% inhibition [4]: 71%

547776 (antisense eG*eG*eA*eG*eA*dG*dA*dG*dA*d[5mC]*dG*dG*d[5mC]*dA*d[5mC]*e[5mC]*e[5mC]*eT*eG*eT) [compound 547776]
% inhibition [5]: 48%

547411 (e[5mC]*eA*eT*e[5mC]*eT*dT*dT*dG*dT*dG*d[5mC]*dA*dA*dG*dT*e[5mC]*eT*e[5mC]*eT*eT; antisense) [compound 547411]
% inhibition [4]: 79%

546347 (antisense eA*e[5mC]*eT*eA*eA*dG*dG*dG*dA*d[5mC]*d[5mC]*dA*d[5mC]*d[5mC]*dT*eG*eA*eA*eT*e[5mC]) [compound 546347]
% inhibition [1]: 28%
% inhibition [2]: 22%

547504 (antisense eG*eA*eA*e[5mC]*eT*d[5mC]*dA*dG*dG*dT*dT*dG*dT*dA*dA*eA*eA*eA*eT*eT) [compound 547504]
% inhibition [6]: 37%

548750 (antisense e[5mC]*eT*eG*eT*dA*d[5mC]*dT*dA*dG*dT*dT*dT*d[5mC]*d[5mC]*eT*eA*eT*eA) [compound 548750]
% inhibition (human PKK mRNA, HepaRG cells, 5,000 nM antisense oligonucleotide, Table 18): 62%

547764 (antisense e[5mC]*e[5mC]*eA*e[5mC]*e[5mC]*dT*dT*d[5mC]*dT*dT*dA*d[5mC]*dA*dT*dA*eT*eG*e[5mC]*eT*eA) [compound 547764]
% inhibition [5]: 24%

547683 (antisense eA*e[5mC]*eT*eA*eT*dA*dT*d[5mC]*dA*d[5mC]*dT*dG*dT*d[5mC]*d[5mC]*eT*eA*eT*eA*eA) [compound 547683]
% inhibition [7]: 33%

546418 (eA*eT*eG*eT*eG*dG*d[5mC]*dA*d[5mC]*dT*dG*d[5mC]*dA*dG*dG*e[5mC]*eA*eA*eT*eA; antisense) [compound 546418]
% inhibition [8]: 72%

547677 (antisense e[5mC]*eA*eT*e[5mC]*eA*d[5mC]*dT*dG*dT*d[5mC]*d[5mC]*dT*dA*dT*dA*eA*e[5mC]*eT*eA*eT) [compound 547677]
% inhibition [7]: 62%

546684 (eT*eA*e[5mC]*eT*e[5mC]*dT*d[5mC]*dT*dA*d[5mC]*dA*dT*dA*d[5mC]*dT*e[5mC]*eA*eG*eG*eA; antisense) [compound 546684]
% inhibition [8]: 71%

547420 (e[5mC]*e[5mC]*eA*eT*eA*dG*dA*dT*dA*dA*dT*d[5mC]*dT*dT*dA*eA*eG*eA*eA*eA; antisense) [compound 547420]
% inhibition [4]: 8%

546363 (antisense e[5mC]*eT*eT*e[5mC]*eT*d[5mC]*dA*dT*dG*d[5mC]*dT*dG*dG*dT*dG*eA*e[5mC]*eT*eG*e[5mC]) [compound 546363]
% inhibition [6]: 81%

547658 (e[5mC]*eG*eT*eA*e[5mC]*dT*dA*dG*dT*dT*dT*d[5mC]*d[5mC]*dT*dA*eT*eA*eA*e[5mC]*eT; antisense) [compound 547658]
% inhibition [3]: 68%
